Measured values published in paper PMC3214178, “High-yield production of aromatic peroxygenase by the agaric fungus Marasmius rotula” (AMB Express, 2011).
Each block holds one compound with its values, some of them ahead of it.

Key:
Assay type in all cases: biochemical
[1] = system: T1, MroAPO (Marasmius rotula aromatic peroxygenase); assay: spectrophotometric initial rates, ABTS cation radical at […] nm; Lineweaver-Burk; details: 2 mM H2O2, sodium phosphate/citrate buffer pH 4.5, 25°C
T1 construct: native secreted heme-thiolate enzyme purified by FPLC from culture liquid of wild-type fungus

[2] = system: T1, MroAPO (Marasmius rotula aromatic peroxygenase); assay: spectrophotometric initial rates, dimeric DMP quinone at […] nm; Lineweaver-Burk; details: 2 mM H2O2, sodium phosphate/citrate buffer pH 5.5, 25°C
[3] = system: T1, MroAPO (Marasmius rotula aromatic peroxygenase); assay: spectrophotometric initial rates, 1-naphthol at […] nm; Lineweaver-Burk; details: H2O2 co-substrate (table note 2 mM; methods give start with 20 μl H2O2 (200 μM)), sodium phosphate/citrate buffer pH 5.5, acetonitrile as substrate solvent, 25°C
[4] = system: T1, MroAPO (Marasmius rotula aromatic peroxygenase); assay: spectrophotometric initial rates, veratraldehyde at […] nm; Lineweaver-Burk; details: 2 mM H2O2, sodium phosphate/citrate buffer pH 5.5, 25°C

Compound: CCn1c(=NN=c2sc3cc(S(=O)(=O)O)ccc3n2CC)sc2cc(S(=O)(=O)O)ccc21 [ABTS]
Km [1]: 71 µM

Km [2]: 133 µM
Compound: COc1cccc(OC)c1O [DMP]

Compound: c1ccc2ccccc2c1 [Naphthalene]
Km [3]: 791 µM

Compound: COc1ccc(CO)cc1OC [Veratryl alcohol]
Km [4]: 279 µM
